Measured values: paper PMC8698721, “Exploration of the Structure–Function Relationships of a Novel Frog Skin Secretion-Derived Bioactive Peptide, t-DPH1, through Use of Rational Design, Cationicity Enhancement and In Vitro Studies” (Antibiotics, 2021)
≈ marks a conversion by molar mass, not a printed value. Like-named read-outs stand apart in the source and are kept apart here. Where a SMILES comes first, the peptide text is derived from it.

Experiments:
S. aureus (ATCC 6538) = type: cell-based, Staphylococcus aureus; conditions: ATCC 6538, 24 h
Procedure: (§1) To assess the antimicrobial activity of t-DPH1 and its designed analogues, MIC and MBC assays were conducted. Seven microorganism strains were used in the assay: Gram-positive bacteria S. aureus (ATCC 6538), E. faecalis (NCTC 12697) and MRSA (NCTC 12493); Gram-negative bacteria E. coli (ATCC 8739), P. aeruginosa (ATCC 9027) and K. pneumoniae (ATCC 43816); yeast, C. albicans (ATCC 10231).
(§2) For MIC assay, the microorganisms were initially incubated in Mueller-Hinton broth (MHB) (for bacteria) or yeast extract peptone dextrose broth (YPD-B) (for yeast) overnight and sub-cultured to achieve their respective logarithmic growth phases (5 × 10^5 CFU/mL). Then, 99 μL of each microorganism and 1 μL of the tested peptide solution were incubated in a 96-well plate. The final on-plate peptide concentrations were from 1 to 512 μM. Except for the peptide group, four other groups were set when conducting this experiment, including a negative control group (PBS), a vehicle control group (1% DMSO), a positive control group (bacteria: 20 μg/mL norfloxacin; yeast: amphotericin B) and a blank control group (MHB or YPD-B with no microorganism culture). Thus, the MIC value represents the lowest concentration of peptides at which no visible growth of the microorganism after 24 h incubation. For the MBC assay, 10 μL of the medium from each clear well was inoculated onto a Mueller–Hinton agar (MHA) (for bacteria) or yeast extract peptone dextrose agar (YPD-A) (for yeast) plate and incubated for 24 h for measurement MBC values.

[1] = test system: Enterococcus faecalis (E. faecalis) (NCTC 12697); type: cell-based; conditions: NCTC 12697, 24 h
Procedure: as §1, §2

[2] = test system: Methicillin-resistant Staphylococcus aureus (MRSA) (NCTC 12493); type: cell-based; conditions: NCTC 12493, 24 h
Procedure: as §1, §2

E. coli (ATCC 8739) = type: cell-based, Escherichia coli; conditions: ATCC 8739, 24 h
Procedure: as §1, §2

[3] = test system: K. pneumoniae (ATCC 43816); type: cell-based, Klebsiella pneumoniae; conditions: ATCC 43816, 24 h
Procedure: as §1, §2

[4] = test system: P. aeruginosa (ATCC 9027); type: cell-based, Pseudomonas aeruginosa; conditions: ATCC 9027, 24 h
Procedure: as §1, §2

C. albicans (ATCC 10231) = type: cell-based, Candida albicans; conditions: ATCC 10231, 24 h
Procedure: as §1, §2

[5] = test system: HMEC-1 (human microvascular endothelial cell line); type: cell-based; conditions: 24 h
Procedure: (§3) The MTT assay was conducted to verify the proliferation inhibitory effect of t-DPH1 and its analogues. Human cancer cell lines (NCI-H838 (ATCC® CRL-5844, human non-small cell lung cancer)), (NCI-H157(ATCC® CRL-5802, human non-small cell lung cancer cell line)), (U251MG (ECACC 09063001, human neuronal glioblastoma cancer cell line)), (PC-3 (ATCC® CRL-1435TM, human prostate carcinoma cancer cell line)) and normal human cell lines (HMEC-1(ATCC®-CRL-3243, human microvascular endothelial cell line)) and (HaCaT (ATCC®-PCS-200-011, human keratinocyte cell)) were purchased from the American Type Culture Collection (ATCC, Manassas, VA, USA) and the European Collection of Cell Cultures (ECACC, Sallisbury, UK) for this assay. For the MTT assay, 8000 cells/per well were seeded in the 96-well plate for 24 h. Subsequently, experiment groups were dosed with fresh serum-free medium containing different concentrations of peptides (100 μM to 10 nM) in 3 replicates. Negative control groups and positive control groups were dosed with the fresh serum-free medium containing equal amounts of PBS, and 0.1% (w/v) Triton X-100, respectively. Then the 96-well plate was incubated at 37 °C with 5% CO2 for 24 h. After, ten microliters of MTT solution (5 mg/mL) (Sigma-Aldrich UK Ltd., Gillingham, UK) were added to each well and incubated in a dark environment for two hours. Then, the solution in each well was removed and 100 μL of DMSO were added and then the plate was shaken for 10 min on a shaking incubator before detecting the OD value by use of a Synergy HT plate reader (BioTek, Minneapolis, MN, USA) at λ = 570 nm.

[6] = test system: HaCaT (human keratinocyte cell); type: cell-based; conditions: 24 h
Procedure: as §3

[7] = test system: NCI-H157 (human non-small cell lung cancer cell line); type: cell-based; conditions: 24 h
Procedure: as §3

[8] = test system: NCI-H838 (human non-small cell lung cancer); type: cell-based; conditions: 24 h
Procedure: as §3

[9] = test system: PC-3 (human prostate carcinoma cancer cell line); type: cell-based; conditions: 24 h
Procedure: as §3

[10] = test system: U251MG (human neuronal glioblastoma cancer cell line); type: cell-based; conditions: 24 h
Procedure: as §3

horse red blood cells = type: cell-based
Procedure: The haemolysis assay was performed by mixing 2% (v/v) fresh defibrinated horse blood (TCS Biosciences Ltd., Buckingham, UK) with peptides in different concentrations. Before the test, horse blood was rinsed with PBS three to four times until the supernatant was clear. Next, peptide solutions (from 100 μM to 1 nM) were incubated with the suspension of red blood cells at 37 °C for two hours. The blood cells treated with 1% Triton-X 100 were used as the positive control, and the blood cells treated with PBS were used as the negative control. After incubation, 100 μL of the supernatant from each sample were transferred to a new 96-well plate, and the OD value of each well was measured with a Synergy HT plate reader (BioTek, Minneapolis, MN, USA) with the absorbance set to 570 nm.

Compound | MBC (S. aureus (ATCC 6538)) | MIC (S. aureus (ATCC 6538)) | MBC [1] | MIC [1] | MBC [2] | MIC [2] | MBC (E. coli (ATCC 8739)) | MIC (E. coli (ATCC 8739)) | MBC [3] | MIC [3] | MBC [4] | MIC [4] | MBC (C. albicans (ATCC 10231)) | MIC (C. albicans (ATCC 10231)) | IC50 against HMEC-1 [5] | IC50 against HaCaT [6] | IC50 [7] | IC50 [8] | IC50 [9] | IC50 [10] | other results
CC[C@H](C)[C@H](NC(=O)[C@H](CCCCN)NC(=O)[C@H](CCCCN)NC(=O)[C@H](Cc1c[nH]c2ccccc12)NC(=O)[C@H](CC(C)C)NC(=O)CN)C(=O)N[C@@H](CCCCN)C(=O)N[C@@H](CC(N)=O)C(=O)N[C@H](C(=O)N[C@@H](C)C(=O)N[C@@H](CCCCN)C(=O)N[C@@H](C)C(=O)N[C@@H](C)C(=O)NCC(=O)N[C@@H](CCCCN)C(=O)N[C@@H](C)C(=O)N[C@@H](C)C(=O)N[C@@H](CCCCN)C(=O)NCC(=O)N[C@@H](C)C(=O)N[C@@H](CC(C)C)C(N)=O)C(C)C [t-DPH1-6K] (H-GLWKKIKNVAKAAGKAAKGAL-NH2) | 8 µM (≈ 17 µg/mL) | 4 µM (≈ 8.49 µg/mL) | 512 µM (≈ 1090 µg/mL) | 256 µM (≈ 543 µg/mL) | 64 µM (≈ 136 µg/mL) | 32 µM (≈ 67.9 µg/mL) | 4 µM (≈ 8.49 µg/mL) | 2 µM (≈ 4.25 µg/mL) | 8 µM (≈ 17 µg/mL) | 4 µM (≈ 8.49 µg/mL) | 16 µM (≈ 34 µg/mL) | 8 µM (≈ 17 µg/mL) | 128 µM (≈ 272 µg/mL) | 64 µM (≈ 136 µg/mL) | 340.2 µM | 151.4 µM | 88.3 µM | 186 µM | 55.6 µM | 594 µM | HC50 (horse red blood cells; red cells of horse): 834.6 µM
CC[C@H](C)[C@H](NC(=O)[C@H](CCCCN)NC(=O)[C@H](CCCCN)NC(=O)[C@H](Cc1c[nH]c2ccccc12)NC(=O)[C@H](CC(C)C)NC(=O)CN)C(=O)N[C@@H](CCCCN)C(=O)N[C@@H](CC(N)=O)C(=O)N[C@H](C(=O)N[C@@H](C)C(=O)N[C@@H](CCCCN)C(=O)N[C@@H](C)C(=O)N[C@@H](C)C(=O)NCC(=O)N[C@@H](CCCCN)C(=O)N[C@@H](C)C(=O)N[C@@H](C)C(=O)N[C@@H](CC(C)C)C(=O)NCC(=O)N[C@@H](C)C(=O)N[C@@H](CC(C)C)C(N)=O)C(C)C [t-DPH1-5K] (H-GLWKKIKNVAKAAGKAALGAL-NH2) | 2 µM (≈ 4.22 µg/mL) | 2 µM (≈ 4.22 µg/mL) | 16 µM (≈ 33.7 µg/mL) | 8 µM (≈ 16.9 µg/mL) | 4 µM (≈ 8.43 µg/mL) | 2 µM (≈ 4.22 µg/mL) | 4 µM (≈ 8.43 µg/mL) | 2 µM (≈ 4.22 µg/mL) | 4 µM (≈ 8.43 µg/mL) | 2 µM (≈ 4.22 µg/mL) | 8 µM (≈ 16.9 µg/mL) | 4 µM (≈ 8.43 µg/mL) | 512 µM (≈ 1080 µg/mL) | 256 µM (≈ 540 µg/mL) | 3.897 µM | 3.332 µM | 1.55 µM | 1.8 µM | 2.6 µM | 2.68 µM | haemolysis (horse red blood cells; 10 µM): ~40%; HC50 (horse red blood cells; red cells of horse): 19.39 µM
CC[C@H](C)[C@H](NC(=O)[C@H](CCCCN)NC(=O)[C@H](CCCCN)NC(=O)[C@H](Cc1c[nH]c2ccccc12)NC(=O)[C@H](CC(C)C)NC(=O)[C@@H](N)Cc1c[nH]c2ccccc12)C(=O)N[C@@H](CCCCN)C(=O)N[C@@H](CC(N)=O)C(=O)N[C@H](C(=O)N[C@@H](C)C(=O)N[C@@H](CCCCN)C(=O)N[C@@H](C)C(=O)N[C@@H](C)C(=O)NCC(=O)N[C@@H](CCCCN)C(=O)N[C@@H](C)C(=O)N[C@@H](C)C(=O)N[C@@H](CCCCN)C(=O)NCC(=O)N[C@@H](C)C(=O)N[C@@H](CC(C)C)C(N)=O)C(C)C [t-DPH1-6KW] (H-WLWKKIKNVAKAAGKAAKGAL-NH2) | 128 µM (≈ 288 µg/mL) | 128 µM (≈ 288 µg/mL) | > 512 µM | 512 µM (≈ 1150 µg/mL) | 256 µM (≈ 576 µg/mL) | 128 µM (≈ 288 µg/mL) | 4 µM (≈ 9.01 µg/mL) | 2 µM (≈ 4.5 µg/mL) | 64 µM (≈ 144 µg/mL) | 64 µM (≈ 144 µg/mL) | 128 µM (≈ 288 µg/mL) | 64 µM (≈ 144 µg/mL) | > 512 µM | 512 µM (≈ 1150 µg/mL) | 293.2 µM | 119.3 µM | 427 µM | 181 µM | 118 µM |  | HC50 (horse red blood cells): 2094 µM
CC[C@H](C)[C@H](NC(=O)[C@H](CCCCN)NC(=O)[C@H](CCCCN)NC(=O)[C@H](Cc1c[nH]c2ccccc12)NC(=O)[C@H](CC(C)C)NC(=O)CN)C(=O)N[C@@H](CCCCN)C(=O)N[C@@H](CC(N)=O)C(=O)N[C@H](C(=O)N[C@@H](C)C(=O)N[C@@H](C)C(=O)N[C@@H](C)C(=O)N[C@@H](C)C(=O)NCC(=O)N[C@@H](CCCCN)C(=O)N[C@@H](C)C(=O)N[C@@H](C)C(=O)N[C@@H](CC(C)C)C(=O)NCC(=O)N[C@@H](C)C(=O)N[C@@H](CC(C)C)C(N)=O)C(C)C [t-DPH1-K4] (H-GLWKKIKNVAAAAGKAALGAL-NH2) | 4 µM (≈ 8.2 µg/mL) | 2 µM (≈ 4.1 µg/mL) | 32 µM (≈ 65.6 µg/mL) | 32 µM (≈ 65.6 µg/mL) | 4 µM (≈ 8.2 µg/mL) | 2 µM (≈ 4.1 µg/mL) | 2 µM (≈ 4.1 µg/mL) | 1 µM (≈ 2.05 µg/mL) | 4 µM (≈ 8.2 µg/mL) | 2 µM (≈ 4.1 µg/mL) | 16 µM (≈ 32.8 µg/mL) | 8 µM (≈ 16.4 µg/mL) | 64 µM (≈ 131 µg/mL) | 32 µM (≈ 65.6 µg/mL) | 46.02 µM | 63.37 µM | 6.14 µM | 10.1 µM | 19 µM | 32.2 µM | HC50 (horse red blood cells; red cells of horse): 444.8 µM
